Results: patent US20230364069A1, “METHOD FOR TREATING NON-ALCOHOLIC STEATOHEPATITIS THROUGH CO-ADMINISTRATION OF CURCUMIN DERIVATIVE AND TGF-B RECEPTOR INHIBITOR” (UNIVERSITY INDUSTRY FOUNDATION, YONSEI UNIVERSITY WONJU …, priority 2021, published 2023)

Tests used:
[1] = tested on: mouse hepatocyte cell lines (AML12); test: TGF-β-induced fibrosis, co-administration of curcumin derivative and EW-7197 (epithelial-mesenchymal conversion, BODIPY, α-SMA staining, Western blotting); assay type: cell-based; conditions: 2 ng/ml TGF-β, 24 hours, 1 μM Cur or Cur5-8, 10 μM EW-7197; for epithelial-mesenchymal conversion caused by TGF-β: FIG. 8; for liver fibrosis (α-SMA staining, fibrosis marker Western blotting): FIGS. 8, 10, 11
Protocol: Fibrosis was induced in hepatocytes with TGF-β, a curcumin derivative and a TGF-β receptor inhibitor were co-administered, and then fibrosis and fat synthesis and degradation were checked.
Specifically, 2 ng/ml of TGF-β was administered to the cells of Example 1-1, the cells were divided into administration groups of vehicle (Veh), 1 μM curcumin (Cur), 1 μM curcumin 5-8 (Cur5-8), 0.5 μM EW-7197 (EW0.5), 10 μM EW-7197 (EW or EW10), 1 μM curcumin and 0.5 μM EW-7197 (EW0.5+Cur), 1 μM curcumin and 10 μM EW-7197 (EW+Cur or EW10+Cur), 1 μM curcumin 5-8 and 0.5 μM EW-7197 (EW0.5+Cur5-8), 1 μM curcumin 5-8 and 10 μM EW-7197 (EW+Cur5-8 or EW10+Cur5-8), respective samples were administered, and culturing was performed for 24 hours. The control group (Con) was not treated with either TGF-β or the sample. […] After washing with PBS 1×, stained cells were observed.
In addition, in order to check the degree of fibrosis of hepatocytes, the cells cultured for 24 hours were fixed with 4% paraformaldehyde and then stained by using α-SMA (Santa Cruz Biotechnology, Inc., Dallas, Texas, USA), an Alexafluor 488 (Cell Signaling Technology, Danvers, Massachusetts, USA) antibody, and DAPI (Abcam plc., Cambridge, MA, USA). The cells were mounted with a mounting solution (Fisher Scientific, Hampton, Rockingham, USA), the manufactured sample was photographed using a confocal microscope to obtain photographs of stained cells, and the degree of color development in the photographs of the stained cells was analyzed with the ImageJ program.
In addition, in order to confirm the degree of fibrosis of hepatocytes, the cells cultured for 24 hours were collected, and protein expressions of α-SMA, Collagen I (Coll), p-SMAD2, and p-SMAD3 were checked by Western blotting with fibrosis markers in the same method as described in <Example 1-3>.
In order to check a synergistic effect of inhibiting fibrosis caused by a TGF-β and inhibiting fat accumulation caused thereby in case of co-administration of a curcumin derivative (Cur5-8) and a TGF-β receptor inhibitor (EW-7197), epithelial-mesenchymal conversion of hepatocytes was confirmed through a cell experiment by the method described in Example 1-5, and BODIPY staining and α-SMA staining were performed. Also, protein expressions of α-SMA, Collagen I p-SMAD2, and p-SMAD3 were checked by Western blotting.

[2] = tested on: mouse hepatocyte cell lines (AML12); test: Fat accumulation induced by oleic acid (BODIPY staining, Western blotting); assay type: cell-based; conditions: 500 μM oleic acid, 24 hours; for fat increased by oleic acid (BODIPY staining, adipophilin and SREBP1C Western blotting): 1 μM Cur5-8, 10 μM EW-7197, FIGS. 6 and 7
Protocol: Fat accumulation was induced in hepatocytes with oleic acid, curcumin derivatives were administered, and fat synthesis and degradation were confirmed.
Specifically, oleic acid was dissolved in 0.2% bovine serum albumin (BSA) at a concentration of 500 μM, and the cells of Example 1-1 were cultured for 24 hours and treated with the resultant, and also treated with 1 μM curcumin (Cur), 1 μM curcumin 5-8 (Cur5-8), 1 μM curcumin 4-8 (Cur4-8), and 1 μM curcumin 5-14 (Cur5-14) for the same period of time. Thereafter, BODIPY-fatty acid solution (Sigma, 1 mg/mL of stock DMSO solution was diluted with PBS 1× to obtain a final concentration of 0.2 μg/mL) was administered to cells cultured in an incubator of 5% CO2 at 37° C. and cultured for one hour. After washing with PBS 1×, stained cells were observed.
In addition, the cells of Example 1-1 were treated with oleic acid in the same manner as described above and treated with 1 μM curcumin (Cur), 1 μM Curcumin 5-8 (Cur5-8), and 10 μM EW-7197 (EW), and then BODIPY-fatty acid staining was performed in the same manner as above. In addition, the cells were collected after treatment, and the protein expressions of adipophilin as a fat accumulation inducing factor and SREBP1C as a fat metabolism regulator in the collected cells were checked by Western blotting. To this end, Western blotting was performed by using the collected cells in the same method as described in <Example 1-3>. At this time, an anti-β-actin antibody, an anti-adipophilin antibody, and an anti-SREBP1C antibody were used as primary antibodies.
The mouse hepatocyte cell lines were treated with oleic acid by the method described in Example 1-4 and were simultaneously treated with each of curcumin (Cur) and curcumin derivatives (Cur5-8, Cur4-8, and Cur5-14) for 24 hours, and fat was stained by BODIPY staining method. […]

| SMILES | epithelial-mesenchymal conversion caused by TGF-β [1] | fat accumulation / adipogenesis in cells (BODIPY staining) ([1]; FIGS. 8, 9) | liver fibrosis (α-SMA staining, fibrosis marker Western blotting) [1] | fat increased by oleic acid (BODIPY staining, adipophilin and SREBP1C Western blotting) [2] | fat increased by oleic acid (BODIPY staining) ([2]; 1 μM compound, FIGS. 4 and 5) |
| --- | --- | --- | --- | --- | --- |
| Cc1cccc(-c2[nH]c(CNc3ccccc3F)nc2-c2ccc3ncnn3c2)n1 [EW-7197, N-(2-fluorophenyl)-5-(6-methyl-2-pyridinyl)-4-[1,2,4]triazolo[1,5-a]pyridin-6-yl-1H-imidazole-2-methanamine] | inhibited | fat accumulation in cells was exhibited | inhibited | promotes the fat increase caused by oleic acid | – |
| COc1cc(/C=C/C(=O)c2cccc(NC(=O)C(C)C)c2)ccc1O [Cur5-8, N-{3-[(2E)-3-(4-hydroxy-3-methoxyphenyl)prop-2-enoyl]phenyl}-2-methylpropanamide] | not inhibited | – | liver fibrosis was induced | reduced the fat increased by oleic acid | most effectively reduced fat |
